Data reported in patent US9328112B2, “Tetracyclic CDK9 kinase inhibitors” (AbbVie Inc., priority 2014, dated 2016).

Assays:
H929 cells = assay: Cell viability assay (Cell TiterGlo); format: cell-based; details: Cell TiterGlo luminescence
Method: The cell viability assay was performed using H929 cells. Cells were seeded in 96-well plates at 10,000 cells/well and, after overnight incubation, treated with compounds in a dose response of 3-fold dilutions from 10 μM to 0.005 μM ([…], 0.1% final DMSO concentration). After 24 hours at 37° C., cell viability was measured using Cell TiterGlo reagent (Promega) with a luminescence reader.

CDK9/Cyclin T1 = CDK9/Cyclin T1 (Homo sapiens (Human), UniProt P50750); assay: CDK9 enzyme assay (LANCE ULight TR-FRET kinase assay); format: biochemical; details: 1000 μM ATP, 100 nM ULight MBP, kinase reaction 1 hour
Summary of the method: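 Human CDK9/Cyclin T1 phosphorylating 100 nM ULight-MBP with 1000 μM ATP in HEPES/MgCl2 buffer, 1 h reaction. Stopped with 20 mM EDTA plus 0.5 nM Eu anti-phospho-MBP antibody, incubated 1 h, read by TR-FRET (ex 320 nm, em 615/665 nm).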

[1] = Homo sapiens, NCI-H929, 24 hours at 37° C.

Chain of CDK9/Cyclin T1 (P50750 whole entry): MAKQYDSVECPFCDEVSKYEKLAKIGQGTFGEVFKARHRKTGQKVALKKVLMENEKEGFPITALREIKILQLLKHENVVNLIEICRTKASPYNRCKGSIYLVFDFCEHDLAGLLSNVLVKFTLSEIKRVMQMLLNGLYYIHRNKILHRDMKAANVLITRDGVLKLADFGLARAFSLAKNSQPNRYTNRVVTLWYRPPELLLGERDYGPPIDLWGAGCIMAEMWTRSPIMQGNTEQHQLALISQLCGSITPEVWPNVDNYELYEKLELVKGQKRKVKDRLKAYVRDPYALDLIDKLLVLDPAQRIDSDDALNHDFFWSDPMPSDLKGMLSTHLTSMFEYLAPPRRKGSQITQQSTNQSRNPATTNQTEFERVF
Chain of CDK9/Cyclin T1 (O60563 whole entry partner): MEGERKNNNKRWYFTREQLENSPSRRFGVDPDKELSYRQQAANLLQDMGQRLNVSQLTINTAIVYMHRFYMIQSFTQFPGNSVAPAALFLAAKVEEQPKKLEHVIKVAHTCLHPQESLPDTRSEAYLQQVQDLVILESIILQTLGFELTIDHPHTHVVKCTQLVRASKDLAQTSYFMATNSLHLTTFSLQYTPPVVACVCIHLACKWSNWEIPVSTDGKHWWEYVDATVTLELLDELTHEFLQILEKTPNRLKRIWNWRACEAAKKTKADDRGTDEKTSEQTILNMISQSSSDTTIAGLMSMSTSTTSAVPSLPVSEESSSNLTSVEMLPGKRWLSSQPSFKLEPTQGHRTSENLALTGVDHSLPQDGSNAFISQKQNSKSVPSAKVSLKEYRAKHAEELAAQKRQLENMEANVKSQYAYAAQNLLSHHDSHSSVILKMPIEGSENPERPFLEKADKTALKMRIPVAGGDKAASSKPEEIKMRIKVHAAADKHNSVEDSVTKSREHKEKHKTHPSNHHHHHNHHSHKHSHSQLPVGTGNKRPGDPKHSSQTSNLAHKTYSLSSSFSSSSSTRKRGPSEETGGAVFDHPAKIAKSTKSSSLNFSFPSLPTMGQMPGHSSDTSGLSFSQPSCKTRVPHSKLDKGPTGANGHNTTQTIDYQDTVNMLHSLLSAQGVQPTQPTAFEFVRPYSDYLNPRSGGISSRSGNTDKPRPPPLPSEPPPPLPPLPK

Structure (SMILES) | IC50 (H929 cells; [1]) [µM] | IC50 (CDK9/Cyclin T1) [µM] | IC50 (H929 cells; 24 hours at 37° C.) [µM]
CN1Cc2c(C3=CCN([C@H]4CC[C@H](C(=O)O)CC4)CC3)[nH]c3ncc(F)c(c23)-c2ccccc21 [Example 181, trans-4-[4-(1-fluoro-7-methyl-6,7-dihydro-4H-3,4,7-triazadibenzo[cd,f]azulen-5-yl)-3,6-dihydropyridin-1(2H)-yl]cyclohexanecarboxylic acid] | 0.012 | 0.063 | 
CN1Cc2c(C3=CCN([C@H]4CC[C@@H](CC(=O)O)CC4)CC3)[nH]c3ncc(F)c(c23)-c2ccccc21 [Example 182, {cis-4-[4-(1-fluoro-7-methyl-6,7-dihydro-4H-3,4,7-triazadibenzo[cd,f]azulen-5-yl)-3,6-dihydropyridin-1(2H)-yl]cyclohexyl}acetic acid] | 0.01 | 0.071 | 
CN1Cc2c(C3=CCN([C@H]4CC[C@@H](C(=O)O)CC4)CC3)[nH]c3ncc(F)c(c23)-c2ccccc21 [Example 183, cis-4-[4-(1-fluoro-7-methyl-6,7-dihydro-4H-3,4,7-triazadibenzo[cd,f]azulen-5-yl)-3,6-dihydropyridin-1(2H)-yl]cyclohexanecarboxylic acid] | 0.014 | 0.08 | 
CN1Cc2c(C3=CCCN(C4CCC(=CC(=O)O)CC4)CC3)[nH]c3nccc(c23)-c2cc(F)ccc21 (centres unmarked) [Example 184, {4-[4-(10-fluoro-7-methyl-6,7-dihydro-4H-3,4,7-triazadibenzo[cd,f]azulen-5-yl)-2,3,6,7-tetrahydro-1H-azepin-1-yl]cyclohexylidene}acetic acid] | 0.19 | 0.13 | 
CN1Cc2c(C3=CCN(C4CCC(C(C)(C)C(=O)O)CC4)CC3)[nH]c3nccc(c23)-c2cc(F)ccc21 (centres unmarked) [Example 185, 2-{4-[4-(10-fluoro-7-methyl-6,7-dihydro-4H-3,4,7-triazadibenzo[cd,f]azulen-5-yl)-3,6-dihydropyridin-1(2H)-yl]cyclohexyl}-2-methylpropanoic acid] | 0.16 | 0.13 | 
CC[C@H]1c2c(C3=CCN([C@H]4C[C@@H](C(=O)OC)C4)CC3)[nH]c3nccc(c23)-c2cc(F)ccc2N1C [Example 186, methyl cis-3-{4-[(6S)-6-ethyl-10-fluoro-7-methyl-6,7-dihydro-4H-3,4,7-triazadibenzo[cd,f]azulen-5-yl]-3,6-dihydropyridin-1(2H)-yl}cyclobutanecarboxylate] | 0.013 | 0.064 | 
CC[C@H]1c2c(C3=CCN([C@H]4C[C@@H](C(=O)O)C4)CC3)[nH]c3nccc(c23)-c2cc(F)ccc2N1C [Example 187, cis-3-{4-[(6S)-6-ethyl-10-fluoro-7-methyl-6,7-dihydro-4H-3,4,7-triazadibenzo[cd,f]azulen-5-yl]-3,6-dihydropyridin-1(2H)-yl}cyclobutanecarboxylic acid] | 0.015 | 0.11 | 
CN1CCc2c(C3=CCN([C@H]4C[C@@H](C(=O)O)C4)CC3)[nH]c3nccc(c23)-c2cc(F)ccc21 [Example 188, cis-3-[4-(8-fluoro-5-methyl-1,3,4,5-tetrahydro-1,5,12-triazabenzo[4,5]cycloocta[1,2,3-cd]inden-2-yl)-3,6-dihydropyridin-1(2H)-yl]cyclobutanecarboxylic acid] |  | 0.15 | 0.29
CC[C@H]1c2c(C3=CCN([C@H]4C[C@H](C(=O)O)C4)CC3)[nH]c3nccc(c23)-c2cc(F)ccc2N1C [Example 189, trans-3-{4-[(6S)-6-ethyl-10-fluoro-7-methyl-6,7-dihydro-4H-3,4,7-triazadibenzo[cd,f]azulen-5-yl]-3,6-dihydropyridin-1(2H)-yl}cyclobutanecarboxylic acid] | 0.006 | 0.11 | 
CN1CCc2c(C3=CCN([C@H]4C[C@H](C(=O)O)C4)CC3)[nH]c3nccc(c23)-c2cc(F)ccc21 [Example 190, trans-3-[4-(8-fluoro-5-methyl-1,3,4,5-tetrahydro-1,5,12-triazabenzo[4,5]cycloocta[1,2,3-cd]inden-2-yl)-3,6-dihydropyridin-1(2H)-yl]cyclobutanecarboxylic acid] |  | 0.16 | 0.19
CN1Cc2c(C3=CCN(C4CCC(C(C#N)C(=O)O)CC4)CC3)[nH]c3nccc(c23)-c2cc(F)ccc21 (centres unmarked) [Example 191, cyano{4-[4-(10-fluoro-7-methyl-6,7-dihydro-4H-3,4,7-triazadibenzo[cd,f]azulen-5-yl)-3,6-dihydropyridin-1(2H)-yl]cyclohexyl}acetic acid] | 0.44 | 0.088 | 
CN1Cc2c(C3=CCN(C4CC(CC(=O)O)C4)CC3)[nH]c3ncc(F)c(c23)-c2cc(F)ccc21 (centres unmarked) [Example 192, {3-[4-(1,10-difluoro-7-methyl-6,7-dihydro-4H-3,4,7-triazadibenzo[cd,f]azulen-5-yl)-3,6-dihydropyridin-1(2H)-yl]cyclobutyl}acetic acid] | 0.027 | 0.079 | 
CN1Cc2c(C3=CCN(C4CC(C(=O)O)C4)CC3)[nH]c3ncc(F)c(c23)-c2cc(F)ccc21 (centres unmarked) [Example 193, 3-[4-(1,10-difluoro-7-methyl-6,7-dihydro-4H-3,4,7-triazadibenzo[cd,f]azulen-5-yl)-3,6-dihydropyridin-1(2H)-yl]cyclobutanecarboxylic acid] | 0.011 | 0.076 | 
